Where “and” joins values, the source holds several entries; their conditions need not be identical. Equal entries are not always repeated.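 Each compound was tested at five concentrations against cells in 96-well plates for 48 hours. The concentration for 50% growth inhibition is given as GI50. At the TGI there is no net growth.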

The text below walks through data of PubChem BioAssay (NCI).

Some test systems named below: IGROV1 ovarian; MALME-3M melanoma; MOLT-4 leukemia; RPMI-8226 leukemia; RXF 393 renal; SN12C renal; SR leukemia; U251 CNS; UO-31 renal; SW-620 colon.
Common to all, as to test: growth of human tumour cells (NCI), 48 h

On to `O=C1C(Nc2cccc(O)c2)=C(Sc2ccc(Cl)cc2)C(=O)N1Cc1ccccc1`, for which the GI50 was 26.8 µM with IGROV1 ovarian; 3.81 µM in the assay with MALME-3M melanoma; 3.05 µM with MOLT-4 leukemia; 2.23 µM in the assay with RPMI-8226 leukemia; 3.9 µM in the assay on RXF 393 renal; 15.8 µM in the assay on SN12C renal. The GI50 is 3.41 µM with SR leukemia, 10.3 µM in the assay on U251 CNS and 7.93 µM in the assay on UO-31 renal. Besides, the TGI is over 100 µM in the assay with IGROV1 ovarian; 17.8 µM in the assay with MALME-3M melanoma; 28.3 µM in the assay on MOLT-4 leukemia; 7.42 µM in the assay on RPMI-8226 leukemia; 21.2 µM with RXF 393 renal; 55.1 µM in the assay with SN12C renal. The TGI in the assay on SR leukemia was 14.1 µM; with U251 CNS it was 29.4 µM; in the assay on UO-31 renal, over 100 µM.

Take `C=CC1=C(C)C(Cc2[nH]c(/C=c3\[nH]/c(=C/C4=NC(=O)C(C)/C4=C\C)c(C)c3CCC(=O)O)c(CCC(=O)OC)c2C)NC1=O` (stereo not drawn): the GI50 in the assay with IGROV1 ovarian is 18.8 µM; in the assay on MALME-3M melanoma, 31.8 µM; in the assay with MOLT-4 leukemia, 34.1 µM; with RPMI-8226 leukemia, 23.9 µM; in the assay on RXF 393 renal, 21.4 µM; in the assay with SN12C renal, 22.2 µM. Besides, the GI50 was 20 µM with SR leukemia, 25.4 µM in the assay with SW-620 colon, 22.5 µM with U251 CNS and 18.9 µM in the assay on UO-31 renal. In addition, the TGI with IGROV1 ovarian was 42.4 µM; in the assay with MALME-3M melanoma, 69.8 µM; in the assay on MOLT-4 leukemia it was over 100 µM; in the assay on RPMI-8226 leukemia, 59.8 µM; in the assay on RXF 393 renal it was 44 µM; in the assay on SN12C renal, 44.6 µM. The TGI worked out at 46 µM with SR leukemia, 61.4 µM in the assay on SW-620 colon, 52.9 µM in the assay with U251 CNS and 36.1 µM in the assay with UO-31 renal.

With `CCCCCCCCCCC(CN(CC)CC)C(O)c1ccccc1` (stereo not drawn), the GI50 was 1.82 µM in the assay with IGROV1 ovarian; 1.95 µM in the assay with MALME-3M melanoma; 2.25 µM in the assay on MOLT-4 leukemia; 2.05 µM in the assay with RPMI-8226 leukemia; 1.5 µM with RXF 393 renal; 2.11 µM in the assay with SN12C renal. For the same molecule, the GI50 in the assay with SR leukemia was 2.44 µM; in the assay with SW-620 colon it was 1.8 µM; in the assay on U251 CNS, 1.86 µM; in the assay on UO-31 renal, 1.56 µM. In addition, the TGI in the assay on IGROV1 ovarian was determined as 3.51 µM; in the assay on MALME-3M melanoma it was 3.85 µM; with MOLT-4 leukemia it was 5.8 µM; with RPMI-8226 leukemia it was 4.88 µM; with RXF 393 renal it was 3.05 µM; in the assay with SN12C renal it was 5.69 µM. Moreover, the TGI with SR leukemia is 6.23 µM; in the assay with SW-620 colon it was 3.43 µM; in the assay on U251 CNS, 3.56 µM; in the assay with UO-31 renal, 3.1 µM.

In the case of `NC(N)=N/N=C(/c1ccccc1)c1ccc(O)cc1O`, the TGI with IGROV1 ovarian was over 100 µM; with MALME-3M melanoma it was over 100 µM; with RPMI-8226 leukemia it was 79.8 µM; in the assay with RXF 393 renal, over 100 µM; in the assay on SN12C renal, 91 µM; in the assay with SR leukemia, 60.8 µM. The TGI with SW-620 colon is over 100 µM; with U251 CNS, 57.3 µM; with UO-31 renal it was over 100 µM.

Take `C=C1C(=O)O[C@H]2[C@H]1CC/C(COC(=O)NCc1cccc(OC)c1)=C\CC[C@@]1(C)O[C@@H]21`: the GI50 with IGROV1 ovarian is 2.76 µM; in the assay on MALME-3M melanoma, 1.74 µM; in the assay with MOLT-4 leukemia, 2.38 µM; in the assay on RPMI-8226 leukemia, 1.98 µM; in the assay on RXF 393 renal, 1.38 µM; with SN12C renal, 1.77 µM. For the same molecule, the GI50 is 1.3 µM with SR leukemia, 1.52 µM with SW-620 colon, 3.65 µM in the assay on U251 CNS and 1.58 µM with UO-31 renal. In addition, the TGI came to 8.4 µM in the assay with IGROV1 ovarian; 3.53 µM in the assay on MALME-3M melanoma; 7.19 µM in the assay on MOLT-4 leukemia; 6.4 µM in the assay with RPMI-8226 leukemia; 2.84 µM in the assay with RXF 393 renal; 4.4 µM in the assay on SN12C renal. The TGI in the assay on SR leukemia is 12 µM; in the assay on SW-620 colon it was 3.28 µM; in the assay on U251 CNS, 14.9 µM; with UO-31 renal, 2.94 µM.

On to `O=C(Nc1ccccc1)OCc1nc2c([nH]1)C(=O)C=CC2=O`, for which the TGI with IGROV1 ovarian was 30.7 µM; in the assay on MALME-3M melanoma it was 18.3 µM; in the assay on MOLT-4 leukemia, 6.71 µM; in the assay with RPMI-8226 leukemia, 51.1 µM; with RXF 393 renal, 23 µM; in the assay with SN12C renal it was 36.3 µM. The TGI in the assay with SR leukemia was 51.7 µM; in the assay with SW-620 colon, 8.79 µM; in the assay on U251 CNS it was 25.5 µM; with UO-31 renal, 30.5 µM.

With `c1ccc([P+](CCC[P+](c2ccccc2)(c2ccccc2)c2ccccc2)(c2ccccc2)c2ccccc2)cc1`, the GI50 with IGROV1 ovarian is 14 µM; with MOLT-4 leukemia, 35.9 µM; in the assay on RPMI-8226 leukemia, 1.27 µM; with SN12C renal, 19.6 µM; in the assay on SR leukemia it was 4.82 µM; with SW-620 colon it was 15 µM. Besides, the TGI in the assay with IGROV1 ovarian is over 100 µM; with MALME-3M melanoma it was over 100 µM; in the assay with MOLT-4 leukemia it was over 100 µM; with RPMI-8226 leukemia, > 100 µM and 10.1 µM; with RXF 393 renal it was over 100 µM; with SN12C renal, over 100 µM. In addition, the TGI in the assay on SR leukemia, in the assay on SW-620 colon, in the assay on U251 CNS and in the assay on UO-31 renal was over 100 µM each time.

Turning to `CO[C@@]12[C@H](COC(N)=O)C3=C(C(=O)C(C)=C(N)C3=O)N1C[C@@H]1N[C@@H]12`, the GI50 was 3.24 µM and 1.5 µM in the assay with IGROV1 ovarian; 2.26 µM and 1.38 µM with MALME-3M melanoma; 0.271 µM in the assay on MOLT-4 leukemia; 2.03 µM and 1.88 µM in the assay on RPMI-8226 leukemia; 1.23 µM with RXF 393 renal; 0.995 µM in the assay with SN12C renal. Moreover, the GI50 with SR leukemia was 0.0345 µM; in the assay with SW-620 colon, 0.665 µM. Moreover, the TGI in the assay on IGROV1 ovarian is 8.88 µM and 8.21 µM and 5.97 µM; with MALME-3M melanoma, 4.06 µM and 6.53 µM and 4.03 µM; with RPMI-8226 leukemia, 19.2 µM and 14.2 µM and 15.5 µM; in the assay on RXF 393 renal it was 6.36 µM and 6.07 µM and 3.77 µM; in the assay on SN12C renal, 9.59 µM and 25 µM and 30.8 µM; in the assay with SW-620 colon, 13 µM and 9.44 µM and 24.2 µM. Further, the TGI in the assay with UO-31 renal was 6.88 µM and 0.959 µM.
